Reference: patent US20220241306A1, “CHITIN ANALOGS FOR THE TREATMENT OF KIDNEY DISEASES” (AyuVis Research, Inc., priority 2021, published 2022)

Legend:
hemeoxygenase-1 (OH-1) = assay: RT-PCR of kidney cortical tissue, glycerol-treated mice: hemeoxygenase-1; format: in vivo, mouse; conditions: kidney cortical tissue (FIG. 7A); vs glycerol
Excerpt: (§1) Mouse model for acute kidney injury. Eight to ten weeks old male C57 BL/6J mice (n=5-7 per group, male and female) were utilized to induce acute kidney injury. Animals were randomized before treatment. Littermates or co-housed animals were chosen for this study. The mice were kept without water but unlimited access to chow for −24 hrs. In first study, nine ml per kg body weight of 1:1 diluted glycerol was intramuscularly injected followed by intraperitoneal administration of either compound 2 (5 mg/kg) or compound 8 (2.5 mg/kg body weight) at 1, 6 and 24 hrs post glycerol dosing. In a second study, AVR-48 was injected either at 5.0 mg/kg/dose or 10 mg/kg/dose IP after 3 h of glycerol administration and was dosed 2/day for 3 days (total 7 doses) and survival was monitored till 8 days.
(§2) The mice were sacrificed, and bloods were collected by heart puncture. Serum samples were stored at −80° C. for future use. Kidney, spleens, lungs and liver were immediately fixed in 10% buffered formalin for histopathological analysis. Part of the kidney were snap frozen for RNA isolation.
(§3) RNA isolation and RT-PCR. RNA was isolated from snap-frozen kidney samples by using RNA plus micro kit (Qiagen) according to manufacturer's instruction. c-DNA were prepared by Quanta-Bio-C-DNA kit. […] The expression of various genes was analyzed in comparison to GAPDH. […]

[1] = system: glycerol induced rhabdomyolysis model; assay: Survival in glycerol induced rhabdomyolysis model; format: in vivo, mouse; conditions: 10 mg/kg/dose IP from 3 h after glycerol, 2/day for 3 days; monitored till 8 days; vs glycerol+saline, p<0.05
Excerpt: as §1
FIG. 9 is a graph showing survival curve of the mouse in a glycerol induced rhabdomyolysis model when dosed after 3 h of glycerol administration.

[2] = system: mechanical ventilator induced kidney injury; assay: Preterm lamb model of mechanical ventilator induced kidney injury: BUN; format: in vivo; conditions: day 10, after 7 days of treatment on invasive mechanical ventilator
Method: (§4) A unique PT lamb model, developed by Dr. Albertine (University of Utah), was used to emulate the clinical setting for PT human infants with respiratory failure related to premature birth before the lungs are mature enough to support extra-uterine life.
(§5) A dose range-finding study was conducted with the goal of treating 2-3 PT lambs with either a vehicle control or AVR-48 (compound 8, 3mg/kg/dose) by twice daily intravenous infusions during 6 to 7 days of mechanical ventilation, followed by transition to noninvasive respiratory support (NIS) for 3 days, for a total of 10 days of management of these PT lambs. AVR-48 was not given during the period of noninvasive respiratory support to assess short-term persistence of effect of AVR-48. Detailed methods have been published previously by Reyburn et al. and Null et al (Reyburn, Li et al. 2008, Null, Alvord et al. 2014), relevant portions incorporated herein by reference. All protocols have been adhered to APS/NIH guidelines for animal research and have been approved by the Institution Animal Care and Use Committees (IACUC) at the University of Utah.
Fetal lamb is term lamb control. N=2-3, **p<0.01, *** student t test (2-tailed), Dunnett's multiple comparison test.

[3] = system: mechanical ventilator induced kidney injury; assay: Preterm lamb model of mechanical ventilator induced kidney injury: renal cortical histology; format: in vivo; conditions: 3.0 mg/Kg twice daily IV during mechanical ventilation, vs vehicle (saline)
Method: as §4, §5
FIGS. 11A and 11B compare renal cortical histology from the preterm lamb treated with 3.0 mg/Kg of AVR-48 (FIG. 11A) versus the vehicle-treated lamb (saline; FIG. 11B). Renal cortical histology is normal in the 3.0 mg/Kg AVR-48-treated lamb. […]

NGAL = assay: RT-PCR of kidney cortical tissue, glycerol-treated mice: NGAL; format: in vivo, mouse; conditions: kidney cortical tissue (FIG. 7B); vs glycerol
Excerpt: as §1, §2, §3

TNF-α = assay: RT-PCR of kidney tissue, glycerol-treated mice: TNF-α; format: in vivo, mouse; conditions: whole kidney tissue, RT-PCR vs GAPDH
Excerpt: as §1, §2, §3

IL-1β = assay: RT-PCR of kidney tissue, glycerol-treated mice: IL-1β; format: in vivo, mouse; conditions: whole kidney tissue, RT-PCR vs GAPDH
Excerpt: as §1, §2, §3

[4] = system: glycerol induced damage of kidney tissues; assay: H/E staining of mouse whole kidney tissue after glycerol; format: in vivo; conditions: N=5
Excerpt: as §1, §2

glycerol-induced AKI = assay: Mouse model for acute kidney injury (glycerol-induced): serum creatinine, BUN, proteinuria; format: in vivo; conditions: for blood urea nitrogen (BUN) level in serum / serum creatinine level: glycerol IM, compound 2 (5 mg/kg) or compound 8 (2.5 mg/kg) IP at 1, 6 and 24 hrs post glycerol, vs glycerol controls
Excerpt: Mouse model for acute kidney injury. Eight to ten weeks old male C57 BL/6J mice (n=5-7 per group, male and female) were utilized to induce acute kidney injury. Animals were randomized before treatment. Littermates or co-housed animals were chosen for this study. The mice were kept without water but unlimited access to chow for −24 hrs. In first study, nine ml per kg body weight of 1:1 diluted glycerol was intramuscularly injected followed by intraperitoneal administration of either compound 2 (5 mg/kg) or compound 8 (2.5 mg/kg body weight) at 1, 6 and 24 hrs post glycerol dosing. In a second study, AVR-48 was injected either at 5.0 mg/kg/dose or 10 mg/kg/dose IP after 3 h of glycerol administration and was dosed 2/day for 3 days (total 7 doses) and survival was monitored till 8 days. Proteinuria was measured in urine at 24 hrs before sacrifice of the animals by an albustix proteinuria strip. The mice were sacrificed, and bloods were collected by heart puncture. Serum samples were stored at −80° C. for future use. Kidney, spleens, lungs and liver were immediately fixed in 10% buffered formalin for histopathological analysis. Part of the kidney were snap frozen for RNA isolation. To evaluate the effect of AVR-48 and AVR-123 on acute kidney injury, the inventors measured the vital parameters of kidney injury, i.e., levels of creatinine and blood urea nitrogen (BUN) in the serum of animals treated with AVR-48 and AVR-123 along with glycerol treated positive controls. PBS treated animals were considered as sham. […] N=4-7 mice. *p=0.02, **p=0.00′7, and ***p=0.0004, One-way ANOVA, Dunnett's multiple comparison test. […] N=4-7 mice, each sample run in duplicates. ****p<0.0001, One-way ANOVA, Dunnett's multiple comparison test.

IL-10 = assay: RT-PCR of kidney tissue, glycerol-treated mice: IL-10; format: in vivo, mouse
Excerpt: as §1, §2
RNA isolation and RT-PCR. […] The expression of various genes was analyzed in comparison to GAPDH.
FIGS. 6A and 6B are graphs that show the level of the anti-inflammatory cytokine IL-10 in the whole kidney tissue (FIG. 6A) and in kidney cortex tissue (FIG. 6B) with or without AVR-48 treatment as determined by RT-PCR experiment. […]

cyclooxygenase-2 (Cox-2) = assay: RT-PCR of whole kidney tissue, glycerol-treated mice: Cox-2 mRNA; format: in vivo, mouse; conditions: vs glycerol injection
Excerpt: as §1, §2
RNA isolation and RT-PCR. RNA was isolated from snap-frozen kidney samples by using RNA plus micro kit (Qiagen) according to manufacturer's instruction. c-DNA were prepared by Quanta-Bio-C-DNA kit. […] The expression of various genes was analyzed in comparison to GAPDH.

Compound | level of hemeoxygenase-1 (OH-1) in kidney cortical tissue (hemeoxygenase-1 (OH-1)) | survival [1] | BUN at day 10 [2] | renal cortical histology [3] | level of NGAL in kidney cortical tissue (NGAL) | level of TNF-α in kidney tissue (TNF-α) | level of IL-1β in kidney tissue (IL-1β) | H/E staining of whole kidney tissue [4] | blood urea nitrogen (BUN) level in serum (glycerol-induced AKI) | serum creatinine level (glycerol-induced AKI) | total proteinuria level (glycerol-induced AKI; urine at 24 hrs, albustix proteinuria strip, vs glycerol treated mice) | level of IL-10 in kidney cortex tissue (IL-10; kidney cortex tissue, RT-PCR (FIG. 6B), vs glycerol treated group) | level of IL-10 in whole kidney tissue (IL-10; whole kidney tissue, RT-PCR (FIG. 6A)) | Cox-2 mRNA level in whole kidney tissue (cyclooxygenase-2 (Cox-2))
CC(=O)N[C@@H]1C(Oc2ccc([N+](=O)[O-])cc2)OC(CO)C(O)C1O (stereo partly shown) [AVR-48] | decreased the level significantly | significant difference in survival | decreased BUN | normal | decreased | significantly decreased the level | significantly decreased the level | significant protection of kidney tissues | significantly reduced | significantly reduced | decreased proteinuria levels | decreased the level and brought it back close to normal | significantly high | decreased significantly
CC(=O)NC1[C@H](Oc2ccc(C(=O)N[C@@H]3OC(COC(C)=O)[C@@H](OC(C)=O)[C@H](OC(C)=O)C3NC(C)=O)cc2)OC(CO)[C@@H](O)[C@@H]1O (stereo partly shown) [AVR-123] | – | – | – | – | – | – | – | – | significantly reduced | significantly reduced | – | – | – | –
